Laboratory results as given in the NIST ThermoML archive (doi:10.1021/acs.jced.5b00857).
± gives the expanded uncertainty stated by the source.

Assays:
[1] = Crystal; DTA
[2] = Molar enthalpy of transition or fusion; conditions: Crystal; DSC

Normal melting temperature [1]: 118.70 ± 1.1 °C
Molar enthalpy of transition or fusion [2]: 7.24 ± 0.454 kcal/mol
Structure (SMILES): O=C1OC[C@H]2[C@@H]1N(Cc1ccccc1)C(=O)N2Cc1ccccc1
